Where no end group is shown, it is not given here.

The text below walks through data of US20260217863A1, “ANTIBODY OR PEPTIDE BINDING SPECIFICALLY TO RNASE A, IMMUNOASSAY DEVICE AND METHOD FOR DETECTING RNASE A, AND METHOD FOR COLLECTING RNASE A” (UIF (University Industry Foundation), Yonsei University, priority 2022, published 2026).

Assay [1] deals with T1, RNase A (Bos taurus, UniProt P61823).
T1 sequence (P61823 27-150): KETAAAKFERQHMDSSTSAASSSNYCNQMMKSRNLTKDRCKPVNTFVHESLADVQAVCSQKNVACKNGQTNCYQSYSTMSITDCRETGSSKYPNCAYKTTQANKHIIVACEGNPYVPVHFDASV
Briefly: SPR biosensor binding analysis with immobilized RNase A. Further details: Ribonuclease A (Type II-A) from bovine pancreas; purchased Sigma-Aldrich Korea; host or cells: bovine pancreas; species or system bovine. As to conditions: synthetic peptides, 0.37-10 μM; RNase A immobilized on Au chip; read-out: affinity constant (KD). How it is done: Binding analysis of the expressed FV antibody and synthesized peptides against RNase A was performed using an SPR (Surface Plasmon Resonance) biosensor from I-Cluebio (Seongnam, Korea). RNase A was immobilized on the gold surface of the SPR chip used in the SPR biosensor to conduct the binding analysis. For the manufacture of the SPR chip, a 2 nm thick titanium adhesive layer and a 48 nm thick gold surface were consecutively sputter-coated onto BK-7 glass (1×1 cm^2). […] To analyze the binding of the expressed Fv antibody to RNase A, Fv antibodies in the concentration range of 0.37-100 nM were reacted using PBS buffer as the […] through association (10 minutes), equilibrium (5 minutes), and dissociation (10 minutes) steps. The washing buffer and total SPR measurements were performed at a flow rate of 15 μL/min. For the binding analysis of the synthesized peptides against RNase A, peptides in the concentration range of 0.37-100 nM were reacted using PBS buffer as the washing buffer through association (10 minutes), equilibrium (5 minutes), and dissociation (10 minutes) steps, and total SPR measurements were conducted at a flow rate of 15 μL/min.
Using the screened CDR3 amino acid sequences, the CDR3 regions of the screened Fv antibodies were synthesized as peptides, and the amino acid sequences were determined from the nucleotide sequences of the CDR3 regions as summarized in Table 2. These synthetic peptides (Peptide-1, Peptide-2, Peptide-3) and Fv antibodies (Fv-1, Fv-2, Fv-3) were identical to the amino acid sequences of the CDR3 regions of the screened clones. […] The SPR signal was plotted according to the concentration of the synthetic peptides, and the affinity constants (KD) of these synthetic peptides were calculated through a fitting process. […]
Using the screened CDR3 amino acid sequences, the CDR3 regions of the screened Fv antibodies were synthesized as peptides, and the amino acid sequences were determined from the nucleotide sequences of the CDR3 regions as summarized in Table 7. […]
On the technique in general: In SPR one partner is held on a chip, and binding of the other changes the refractive index at the surface.

Assay [2] has as its target T1, RNase A. Briefly: RNase activity test kit, modified Taq-man RNA probe analysis (ab273299). The assay is classed as biochemical. Further details: purchased Abcam ab273299. As to conditions: for inhibition at 1 µM: inhibitor 1 μM, after 60 minutes, positive control (no inhibitor) = 100%, read-out: relative inhibition level / reduction of RNase A activity; for RNase A activity reduced by: summary paragraph, peptide 1 μM, versus non-inhibitory condition (100%); for IC50: synthetic peptides, RNA probe kit, linear regression. The method, then:
The activity of RNase A, which degrades RNA, was evaluated using specially designed RNA probes. This RNase A analysis was performed using a commercial RNase activity test kit based on a modified Taq-man probe analysis (ab273299) from Abcam (Cambridge, UK). To compare inhibitory activity, three synthetic peptides (peptide-1, peptide-2, peptide-3) and three expressed Fv-antibodies (Fv-1, Fv-2, and Fv-3) were compared using two types of commercially available RNase inhibitors from Biofact™ (Daejeon, South Korea) and two types of RNaseOUT™ from Thermofisher (USA). The probes for the RNase inhibition analysis contained RNA probes with fluorescent dyes and quenching materials at each end of the RNA sequence. […] To estimate the RNase A inhibitory activity by the three synthesized peptides, each peptide was treated at a concentration of 1 μM using the analysis kit, and RNase activity was measured. The positive control was prepared to have an RNase reaction without an inhibitor, and the negative control was prepared to have an RNase reaction without the RNA probe. […] The RNase A inhibitory activity of the three synthesized peptides was analyzed after treating each peptide at a concentration range of 100 μM to 1 μM in the assay kit. […] The RNase A inhibitory activity of the three expressed Fv-antibodies was analyzed after treating each peptide at a concentration range of 100 μM to 1 μM in the analysis kit.
The activity of RNase A, which degrades RNA, was evaluated using specially designed RNA probes. This RNase A analysis was performed using a commercial RNase activity test kit based on a modified Taq-man probe analysis (ab273299) from Abcam (Cambridge, UK). For the comparison of inhibitory activity, three synthetic peptides (Peptide-1, Peptide-2, Peptide-3) and three expressed Fv-antibodies (Fv-1, Fv-2, and Fv-3) were compared using two types of commercially available RNase inhibitors from Biofact™ (Daejeon, South Korea) and two types of RNaseOUT™ from Thermofisher (USA). The probes for the RNase inhibition analysis contain RNA probes with fluorescent dyes and fluorescent quenchers at each end of the RNA nucleotide sequence.
To estimate the RNase A inhibitory activity of the three synthesized peptides, each peptide was treated at a concentration of 1 μM using an assay kit, and the RNase activity was evaluated. The positive control was prepared to have an RNase reaction without the inhibitor, while the negative control was prepared to have an RNase reaction without the RNA probe.
The RNase A inhibitory activity of the three synthesized peptides was analyzed after treating each peptide at a concentration range of 100 μM to 1 μM with the RNase A from the assay kit.

Broadly, the Kd is the concentration at which binding is half-saturated. By IC50 is commonly meant the concentration that gives 50% inhibition. For the sequence DGTAKKSRKDD [Peptide-3], the Kd at RNase A [1] was 3700 ± 1100 nM. For the same sequence, at RNase A [2], the inhibition at 1 µM came out at 50.3%; the “RNase A activity reduced by” value is on record as 50.3%; the midpoint of inhibition, the IC50, lay at 400 nM.
Turning to CGPDSDVMTDF [Peptide-1], the Kd at RNase A [1] came out at 1300 ± 100 nM. Further, at RNase A [2], the inhibition at 1 µM is 54.4%, the “RNase A activity reduced by” value is 54.4% and it took 8100 nM to reach half-maximal inhibition (IC50).
Take YGPVGRVKRDD [Peptide-2]: the Kd on RNase A [1] turned out to be 1300 ± 300 nM. On RNase A [2], the inhibition at 1 µM came out at 53.2%, the “RNase A activity reduced by” value was found to be 53.2% and the IC50 was 3600 nM.
